Earlier results on one compound are cited in patent publication US20240033221A1, “LONG-ACTING BUPIVACAINE MICROSPHERE FORMULATIONS” (Scienture, Inc., priority 2020, published 2024).

Counter-ions that a name gives are not always drawn.

For the data set the following is noted: dental injections.

As to `CCCCN1CCCCC1C(=O)Nc1c(C)cccc1C` (centres unmarked) [bupivacaine HCl, bupivacaine hydrochloride], the duration of action is 2 to 8 h and the onset of action is 2 to 10 min.
